# pIC50: −log10 of the molar value.
# Target: KRasG12C (M1-K169, biotinylated on the N-terminus) (Homo sapiens (Human), UniProt P01116, G12C)
# Experiment: Covalent competition assay (scintillation proximity assay, competition with radiolabeled covalent probe Compound B)
# Assay type: binding
# Details: in vitro KRASG12C activity; 10 nM KRasG12C:GDP, 25 nM radio-ligand and 475 nM unlabelled ligand, incubated 2 hours; read-out: Covalent Competition Assay IC50
# Experimental: The cells were lysed by 4 passages through an Avestin Emulsiflex at about 20000 psi and insoluble debris removed by centrifugation and filtered through a 0.45 μm Durapore membrane (Millipore). […] The protein in the flow through was subjected to a final polishing step on a HiLoad 16/60 Superdex 200 prep grade size-exclusion column pre-equilibrated with SEC-buffer (20 mM HEPES pH 7.4, 150 mM NaCl, 5 mM MgCl2, 1 μM GDP).
# A scintillation proximity assay (SPA) was used to determine the potency of the compounds. This assay measures the ability of the test compound to compete with the radiolabeled covalent probe for binding to and covalently modify KRASG12C.
# A serial dilution of the compounds to be tested is mixed with a fixed concentration of the radiolabeled covalent probe before incubation with KRASG12C:GDP as described below.
# The reaction was started by addition of KRasG12C (M1-K169, biotinylated on the N-terminus) to the compounds and incubated for 2 hours with continuous agitation allowing for full modification of KRasG12C with probe or test compounds. […] The assay buffer contained 20 mM Tris-HCl pH 7.5 (Invitrogen), 150 mM NaCl (Sigma Aldrich), 0.1 mM MgCl2 (Sigma Aldrich), and 0.01% Tween-20 (Sigma Aldrich).
# Evaluation was carried out using assay data analysis software (such as the standard Novartis in-house Helios software application, Novartis Institutes for BioMedical Research, unpublished) using the methods described in Formenko et al., Robust Regression for high-throughput screening.
# Evaluation can also be carried out using commercially available software which is designed to derive IC50 values using 4-parameter fits (e.g. GraphPad Prism, XL fit).
row,pIC50,SMILES
1,< 4.30,"C=CC(=O)N1CC2(CC(n3nc(-c4ccn5ccnc5c4)c(-c4c(Cl)c(C)cc5[nH]ncc45)c3C)C2)C1 (single isomer, unassigned) [Example 33b]"
2,< 4.30,"C=CC(=O)N1CC2(CC(n3nc(-c4ccc(=O)n(C)c4)c(-c4c(Cl)c(C)cc5[nH]ncc45)c3C)C2)C1 (single isomer, unassigned) [Example 6b]"
3,7.72,"C=CC(=O)N1CC2(CC(n3nc(-c4ccc5c(c4)CCN5CCOC)c(-c4c(Cl)c(C)cc5[nH]ncc45)c3C)C2)C1 (single isomer, unassigned) [Example 44a]"
4,7.34,"C=CC(=O)N1CC2(CC(n3nc(-c4ccc(C(=O)NCCN(C)C)cc4)c(-c4c(Cl)c(C)cc5[nH]ncc45)c3C)C2)C1 (single isomer, unassigned) [Example 65a]"
5,6.51,"C=CC(=O)N1CC2(CC(n3nc(-c4ccc5c(c4)CS(=O)(=O)C5)c(-c4c(Cl)c(C)cc5[nH]ncc45)c3C)C2)C1 (single isomer, unassigned) [Example 72a]"
6,< 4.30,"C=CC(=O)N1CC2(CC(n3nc(-c4ccc5c(c4)CN(C)C5)c(-c4c(Cl)c(C)cc5[nH]ncc45)c3C)C2)C1 (single isomer, unassigned) [Example 75b]"
7,4.82,"C=CC(=O)N1CC2(CC(n3nc(-c4ccc5c(c4)CN(C)C(=O)C5)c(-c4c(Cl)c(C)cc5[nH]ncc45)c3C)C2)C1 (single isomer, unassigned) [Example 21b]"
8,7.19,"C=CC(=O)N1CC2(CC(n3nc(-c4ccc(O)cc4F)c(-c4c(Cl)c(C)cc5[nH]ncc45)c3C)C2)C1 (single isomer, unassigned) [Example 58a]"
9,6.01,"C=CC(=O)N1CC2(CC(n3nc(-c4ccc(C#N)nc4)c(-c4c(Cl)c(C)cc5[nH]ncc45)c3C)C2)C1 (single isomer, unassigned) [Example 11a]"
10,4.71,"C=CC(=O)N1CC2(CC(n3nc(-c4ccc(C(=O)NCCOC)cc4)c(-c4c(Cl)c(C)cc5[nH]ncc45)c3C)C2)C1 (single isomer, unassigned) [Example 62b, 4-(1-(2-acryloyl-2-azaspiro[3.3]heptan-6-yl)-4-(5-chloro-6-methyl-1H-indazol-4-yl)-5-methyl-1H-pyrazol-3-yl)-N-(2-methoxyethyl)benzamide]"
11,5.54,"C=CC(=O)N1CC2(CC(n3nc(-c4ccc5nn(CCOCCOC)cc5c4)c(-c4c(Cl)c(C)cc5[nH]ncc45)c3C)C2)C1 (single isomer, unassigned) [Example 43b]"
12,7.96,"C=CC(=O)N1CC2(CC(n3nc(-c4ccc5nn(CCN(C)C)cc5c4)c(-c4c(Cl)c(C)cc5[nH]ncc45)c3C)C2)C1 (single isomer, unassigned) [Example 16a]"
13,7.48,"C=CC(=O)N1CC2(CC(n3nc(-c4ccc(O)cc4)c(-c4c(Cl)c(C)cc5[nH]ncc45)c3C)C2)C1 (single isomer, unassigned) [Example 57a]"
14,< 4.30,"C=CC(=O)N1CC2(CC(n3nc(-c4ccc5c(c4)CCN5C(C)=O)c(-c4c(Cl)c(C)cc5[nH]ncc45)c3C)C2)C1 (single isomer, unassigned) [Example 22b]"
15,7.00,"C=CC(=O)N1CC2(CC(n3nc(-c4ccc5nnccc5c4)c(-c4c(Cl)c(C)cc5[nH]ncc45)c3C)C2)C1 (single isomer, unassigned) [Example 71a, 1-(6-(4-(5-chloro-6-methyl-1H-indazol-4-yl)-3-(cinnolin-6-yl)-5-methyl-1H-pyrazol-1-yl)-2-azaspiro[3.3]heptan-2-yl)prop-2-en-1-one]"
16,< 4.30,"C=CC(=O)N1CC2(CC(n3nc(-c4ccnc(C#N)c4)c(-c4c(Cl)c(C)cc5[nH]ncc45)c3C)C2)C1 (single isomer, unassigned) [Example 9b]"
17,5.37,"C=CC(=O)N1CC2(CC(n3nc(-c4ccc(C(=O)N(C)CCOC)cc4)c(-c4c(Cl)c(C)cc5[nH]ncc45)c3C)C2)C1 (single isomer, unassigned) [Example 66b, 4-(1-(2-acryloyl-2-azaspiro[3.3]heptan-6-yl)-4-(5-chloro-6-methyl-1H-indazol-4-yl)-5-methyl-1H-pyrazol-3-yl)-N-(2-methoxyethyl)-N-methylbenzamide]"
18,5.92,"C=CC(=O)N1CC2(CC(n3nc(-c4ccc(=O)n(C)c4)c(-c4c(Cl)c(C)cc5[nH]ncc45)c3C)C2)C1 (single isomer, unassigned) [Example 6a]"
19,< 5.30,"C=CC(=O)N1CC2(CC(n3nc(-c4ccc(NCCOC)cc4F)c(-c4c(Cl)c(C)cc5[nH]ncc45)c3C)C2)C1 (single isomer, unassigned) [Example 61b, 1-(6-(4-(5-chloro-6-methyl-1H-indazol-4-yl)-3-(2-fluoro-4-((2-methoxyethyl)amino)phenyl)-5-methyl-1H-pyrazol-1-yl)-2-azaspiro[3.3]heptan-2-yl)prop-2-en-1-one]"
20,7.26,"C=CC(=O)N1CC2(CC(n3nc(-c4ccc(C(=O)NCCOC)nc4)c(-c4c(Cl)c(C)cc5[nH]ncc45)c3C)C2)C1 (single isomer, unassigned) [Example 64a]"

# More lines, now with the values behind:
row,SMILES,pIC50
1,"C=CC(=O)N1CC2(CC(n3nc(-c4ccc5nn(CCOC)cc5c4)c(-c4c(Cl)c(C)cc5[nH]nc(N)c45)c3C)C2)C1 (single isomer, unassigned) [Example 69a, 1-(6-{(4M)-4-(3-Amino-5-chloro-6-methyl-1H-indazol-4-yl)-3-[2-(2-methoxyethyl)-2H-indazol-5-yl]-5-methyl-1H-pyrazol-1-yl}-2-azaspiro[3.3]heptan-2-yl)prop-2-en-1-one]",8.05
2,"C=CC(=O)N1CC2(CC(n3nc(-c4cccnc4C)c(-c4c(Cl)ccc5[nH]ncc45)c3C)C2)C1 (single isomer, unassigned) [Example 89a]",5.64
3,"C=CC(=O)N1CC2(CC(n3nc(-c4ccnc(C)c4)c(-c4c(Cl)ccc5[nH]ncc45)c3C)C2)C1 (single isomer, unassigned) [Example 28a]",5.89
4,"C=CC(=O)N1CC2(CC(n3nc(-c4ccnc(C)c4)c(-c4c(Cl)ccc5[nH]ncc45)c3C)C2)C1 (single isomer, unassigned) [Example 28b]",< 4.30
5,"C=CC(=O)N1CC2(CC(n3nc(-c4cnc(OC)nc4)c(-c4c(Cl)ccc5[nH]ncc45)c3C)C2)C1 (single isomer, unassigned) [Example 90b]",< 4.30
6,"C=CC(=O)N1CC2(CC(n3nc(-c4cc(C)nn4CCN(C)C)c(-c4c(Cl)c(C)cc5[nH]ncc45)c3C)C2)C1 (single isomer, unassigned) [Example 92a]",5.85
7,"C=CC(=O)N1CC2(CC(n3nc(-c4ccc(-n5ccc(N)n5)nc4)c(-c4c(Cl)c(C)cc5[nH]ncc45)c3C)C2)C1 [Example 53, 1-(6-(3-(6-(3-amino-1H-pyrazol-1-yl)pyridin-3-yl)-4-(5-chloro-6-methyl-1H-indazol-4-yl)-5-methyl-1H-pyrazol-1-yl)-2-azaspiro[3.3]heptan-2-yl)prop-2-en-1-one]",6.49
8,"C=CC(=O)N1CC2(CC(n3nc(-c4ccc(-n5nccc5N)nc4)c(-c4c(Cl)c(C)cc5[nH]ncc45)c3C)C2)C1 (single isomer, unassigned) [Example 7a]",6.79
9,"C=CC(=O)N1CC2(CC(n3nc(-c4cc(C)nn4CCN(C)C)c(-c4c(Cl)c(C)cc5[nH]ncc45)c3C)C2)C1 (single isomer, unassigned) [Example 92b]",4.37
10,"C=CC(=O)N1CC2(CC(n3nc(-c4cncc(C#N)c4)c(-c4c(Cl)c(C)cc5[nH]ncc45)c3C)C2)C1 (single isomer, unassigned) [Example 10b]",< 4.30
11,"C=CC(=O)N1CC2(CC(n3nc(-c4cccnc4C)c(-c4c(Cl)c(C)cc5[nH]ncc45)c3C(F)F)C2)C1 (single isomer, unassigned) [Example 84a, 1-(6-(4-(5-Chloro-6-methyl-1H-indazol-4-yl)-5-(difluoromethyl)-3-(2-methylpyridin-3-yl)-1H-pyrazol-1-yl)-2-azaspiro[3.3]heptan-2-yl)prop-2-en-1-one]",6.27
12,"C=CC(=O)N1CC2(CC(n3nc(-c4ccccc4)c(-c4c(Cl)c(C)cc5[nH]ncc45)c3C)C2)C1 (single isomer, unassigned) [Example 26b]",4.34
13,"C=CC(=O)N1CC2(CC(n3nc(-c4ccc5nn(CCN6CC(OC)C6)cc5c4)c(-c4c(Cl)c(C)cc5[nH]ncc45)c3C)C2)C1 (single isomer, unassigned) [Example 82b]",6.15
14,C=CC(=O)N1CC2(CC(n3nc(-c4cccnc4)c(-c4c(Cl)c(C)cc5[nH]ncc45)c3CC#N)C2)C1 [Example 88],4.87
15,"C=CC(=O)N1CC2(CC(n3nc(-c4cc5ccncc5[nH]4)c(-c4c(Cl)c(C)cc5[nH]ncc45)c3C)C2)C1 (single isomer, unassigned) [Example 59a, 1-(6-(4-(5-chloro-6-methyl-1H-indazol-4-yl)-5-methyl-3-(1H-pyrrolo[2,3-c]pyridin-2-yl)-1H-pyrazol-1-yl)-2-azaspiro[3.3]heptan-2-yl)prop-2-en-1-one]",6.76

# Source: patent US11702409B2, “Pyrazolyl derivatives useful as anti-cancer agents” (NOVARTIS AG, priority 2019, dated 2023)
